The series deals with glutathione (GSH). Briefly: Glutathione reactivity / stability against GSH. The class given is physicochemical. The note with it: glutathione (GSH) in PBS buffer, pH 7.4, 5 mM GSH, read-out: half-life (t1/2) against glutathione (converted). The method, then: A total of 5 µL of a 10 mM compound stock solution in DMSO were added to 5 µL of a 4 mM Indoprofen solution in PBS as internal standard. The mixture was diluted with PBS buffer to a total volume of 1 mL of component A. Additionally, a freshly prepared solution of 10 mM GSH in PBS buffer was used as component B. A total of 250 µL of each component was mixed and immediately subjected to HPLC analysis for t^0 measurement. The probes were stored at 40 °C in between the respective injections. t1/2 was determined by plotting natural logarithm of AUC/AUC0 against time.

As for `C=CC(=O)Nc1cccc(-c2c[nH]c3ncc(NC(=O)c4cccs4)cc23)c1` [Compound 12c, N-(3-(3-acrylamidophenyl)-1H-pyrrolo[2,3-b]pyridin-5-yl)thiophene-2-carboxamide], the half-life at 25 µM is 9.98 h.

For the origin of these results see article PMC7730235, “Discovery of a Novel Class of Covalent Dual Inhibitors Targeting the Protein Kinases BMX and BTK” (International Journal of Molecular Sciences, 2020).
